{
  "source": "ChEMBL document CHEMBL5370584",
  "about": "“Reprogramming Energy Metabolism with Synthesized PDK Inhibitors Based on Dichloroacetate Derivatives and Targeted Delivery Systems for Enhanced Cancer Therapy” (J Med Chem, 2023)",
  "key": {"[1]": {"system": "4T1", "assay": "Antiproliferative activity against PDK knockdown mouse 4T1 cells assessed as reduction in apoptotic percentage at 2 uM incubated for 24 hrs by flow cytometry analysis (reference value: 61.6%)", "assay_type": "functional", "set-up": "scale not given: the % may be the effect or the level left"}, "[2]": {"system": "4T1", "assay": "Downregulation of PHDC at Ser293 residues in mouse 4T1 cells at 4 uM incubated for 24 hrs by Western blot analysis", "assay_type": "functional, cell-based"}, "[3]": {"system": "4T1", "assay": "Inhibition of glycolysis in mouse 4T1 cell lysates assessed as reduction in LDH activity at 1 to 2 uM incubated for 12 hrs", "assay_type": "functional, cell-based", "settings": "dose 1-2 µM"}, "[4]": {"assay": "Toxicity in BALB/c mouse assessed as effect on body weight at 0.15 to 1.5 mg/kg measured upto 16 days", "assay_type": "organism-based", "settings": "in vivo, 384 h, dose 0.15-1.5 mg/kg, time < 16 day"}, "[5]": {"biological_target": "[Pyruvate dehydrogenase (acetyl-transferring)] kinase isozyme 1, mitochondrial (Mus musculus) (UniProt Q8BFP9)", "sequence (Q8BFP9 whole entry)": "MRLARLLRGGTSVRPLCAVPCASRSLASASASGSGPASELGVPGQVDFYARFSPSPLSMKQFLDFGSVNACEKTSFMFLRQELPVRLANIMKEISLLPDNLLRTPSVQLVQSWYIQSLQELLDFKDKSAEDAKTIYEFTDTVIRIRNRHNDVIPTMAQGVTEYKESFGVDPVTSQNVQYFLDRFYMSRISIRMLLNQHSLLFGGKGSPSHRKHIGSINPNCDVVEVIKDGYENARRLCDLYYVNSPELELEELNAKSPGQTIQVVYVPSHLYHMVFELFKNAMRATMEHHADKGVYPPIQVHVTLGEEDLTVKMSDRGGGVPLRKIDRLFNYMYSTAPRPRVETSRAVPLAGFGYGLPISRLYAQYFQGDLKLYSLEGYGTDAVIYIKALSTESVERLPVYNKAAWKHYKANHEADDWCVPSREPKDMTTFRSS", "assay": "Inhibition of PDK1 transcription in mouse 4T1 cells at 4 uM incubated for 24 hrs by qPCR analysis", "assay_type": "cell-based"}, "[6]": {"system": "4T1", "assay": "Upregulation of p53 level in mouse 4T1 cells at 4 uM incubated for 24 hrs", "assay_type": "functional, cell-based"}, "[7]": {"system": "4T1", "assay": "Induction of apoptosis in mouse 4T1 cells assessed as increase in proportion of apoptotic cells incubated for 24 hrs by annexin V-FITC/PI staining based flow cytometry analysis", "assay_type": "functional, cell-based", "settings": "dose 2-3 µM"}, "[8]": {"assay": "Toxicity in BALB/c mouse assessed as effect on ALT level at 0.15 to 1.5 mg/kg measured upto 16 days", "assay_type": "organism-based", "settings": "in vivo, 384 h, dose 0.15-1.5 mg/kg, time < 16 day"}, "[9]": {"assay": "Toxicity in BALB/c mouse assessed as effect on UREA level at 0.15 to 1.5 mg/kg measured upto 16 days", "assay_type": "organism-based", "settings": "in vivo, 384 h, dose 0.15-1.5 mg/kg, time < 16 day"}, "[10]": {"system": "4T1", "assay": "Induction of apoptosis in mouse 4T1 cells assessed as activation of caspase 9 at 2 uM incubated for 12 to 18 hrs", "assay_type": "functional, cell-based", "settings": "time 12-18 hrs"}, "[11]": {"system": "4T1", "assay": "Induction of apoptosis in mouse 4T1 cells assessed as activation of caspase 3 at 2 uM incubated for 12 to 18 hrs", "assay_type": "functional, cell-based", "settings": "time 12-18 hrs"}, "[12]": {"system": "4T1", "assay": "Inhibition of PDK1 expression in mouse 4T1 cells at 4 uM incubated for 24 hrs by Western blot analysis", "assay_type": "functional, cell-based"}, "[13]": {"system": "4T1", "assay": "Antiproliferative activity against mouse 4T1 cells assessed as inhibition of cell growth incubated for 24 hrs by MTT assay", "assay_type": "functional, cell-based", "settings": "4T1, 24 h"}, "[14]": {"system": "4T1", "assay": "Downregulation of HIF-1alpha expression in mouse 4T1 cells at 4 uM incubated for 24 hrs", "assay_type": "functional, cell-based"}, "[15]": {"system": "4T1", "assay": "Induction of ROS production in mouse 4T1 cells by confocal scanning microscopy based analysis", "assay_type": "functional, cell-based"}, "[16]": {"system": "4T1", "assay": "Inhibition of glycolysis in mouse 4T1 cell lysates assessed as reduction in LDHA expression at 4 uM incubated for 24 hrs", "assay_type": "functional, cell-based"}, "[17]": {"biological_target": "[Pyruvate dehydrogenase (acetyl-transferring)] kinase isozyme 1, mitochondrial (Homo sapiens, UniProt Q15118)", "sequence (Q15118 whole entry)": "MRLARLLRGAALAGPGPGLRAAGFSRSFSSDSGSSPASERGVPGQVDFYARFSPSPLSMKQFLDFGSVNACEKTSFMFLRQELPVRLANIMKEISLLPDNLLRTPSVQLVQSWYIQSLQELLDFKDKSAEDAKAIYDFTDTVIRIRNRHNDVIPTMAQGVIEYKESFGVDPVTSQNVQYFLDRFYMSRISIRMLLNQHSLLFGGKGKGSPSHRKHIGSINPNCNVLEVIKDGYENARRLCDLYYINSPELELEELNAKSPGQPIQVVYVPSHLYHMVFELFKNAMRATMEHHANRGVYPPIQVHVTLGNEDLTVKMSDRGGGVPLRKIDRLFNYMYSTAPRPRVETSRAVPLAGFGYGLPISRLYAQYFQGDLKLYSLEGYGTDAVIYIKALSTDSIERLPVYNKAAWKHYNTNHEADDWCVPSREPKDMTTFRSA", "assay": "Inhibition of PDK1 (unknown origin) incubated for 30 mins in presence of ATP by kinase glo luminescent kinase assay"}, "[18]": {"biological_target": "[Pyruvate dehydrogenase (acetyl-transferring)] kinase isozyme 4, mitochondrial (Mus musculus) (UniProt O70571)", "sequence (O70571 whole entry)": "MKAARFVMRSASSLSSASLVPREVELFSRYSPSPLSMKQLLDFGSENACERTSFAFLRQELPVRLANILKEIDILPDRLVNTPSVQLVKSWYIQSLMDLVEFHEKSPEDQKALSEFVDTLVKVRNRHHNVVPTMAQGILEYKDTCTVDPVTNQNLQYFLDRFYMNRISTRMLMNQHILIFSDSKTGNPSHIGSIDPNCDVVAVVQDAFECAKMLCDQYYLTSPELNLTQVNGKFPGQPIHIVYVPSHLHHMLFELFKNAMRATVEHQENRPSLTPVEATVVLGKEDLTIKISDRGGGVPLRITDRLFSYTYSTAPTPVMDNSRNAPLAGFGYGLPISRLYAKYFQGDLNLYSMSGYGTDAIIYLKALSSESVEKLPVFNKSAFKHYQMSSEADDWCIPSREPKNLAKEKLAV", "assay": "Inhibition of PDK4 transcription in mouse 4T1 cells at 4 uM incubated for 24 hrs by qPCR analysis", "assay_type": "cell-based"}, "[19]": {"system": "4T1", "assay": "Induction of mitochondrial respiration in mouse 4T1 cells assessed as upregulation of intracellular ATP level at 2 uM incubated for 12 to 24 hrs […]", "assay_type": "functional, cell-based", "settings": "time 12-24 hrs"}, "[20]": {"system": "4T1", "assay": "Inhibition of PDK4 expression in mouse 4T1 cells at 4 uM incubated for 24 hrs by Western blot analysis", "assay_type": "functional, cell-based"}, "[21]": {"assay": "Toxicity in BALB/c mouse assessed as effect on lung at 0.15 to 1.5 mg/kg measured upto 16 days", "assay_type": "organism-based", "settings": "in vivo, 384 h, dose 0.15-1.5 mg/kg, time < 16 day"}, "[22]": {"system": "4T1", "assay": "Induction of mitochondrial respiration in mouse 4T1 cells assessed as increase in glucose uptake at 2 to 6 uM incubated for 18 hrs followed by 6 hrs incubation in serum free high glucose medium by glucose uptake assay", "assay_type": "functional, cell-based", "settings": "dose 2-6 µM, time 24.0 hrs"}, "[23]": {"assay": "Antiproliferative activity against African green monkey COS7 cells assessed as inhibition of cell growth incubated for 24 hrs by MTT assay", "assay_type": "toxicity, cell-based, Chlorocebus aethiops, COS-7", "settings": "African green monkey (Chlorocebus aethiops), COS-7 cells"}, "[24]": {"system": "4T1", "assay": "Inhibition of glycolysis in mouse 4T1 cell lysates assessed as reduction in lactate production at 1 to 4 uM measured after 6 to 12 hrs", "assay_type": "functional, cell-based", "settings": "dose 1-4 µM, time 6-12 hrs"}, "[25]": {"assay": "Selectivity ratio of IC50 mouse 4T1 cells to IC50 for African green monkey COS7 cells"}, "[26]": {"system": "4T1", "assay": "Induction of apoptosis in mouse 4T1 cells assessed as activation of cytochrome C release from mitochondria to cytosol at 1 to 4 uM incubated for 12 hrs", "assay_type": "functional, cell-based", "settings": "dose 1-4 µM"}, "[27]": {"system": "4T1", "assay": "Induction of apoptosis in mouse 4T1 cells assessed as reduction in Bcl-2 expression at 4 uM incubated for 24 hrs", "assay_type": "functional, cell-based"}, "[28]": {"assay": "Toxicity in BALB/c mouse assessed as effect on UA level at 0.15 to 1.5 mg/kg measured upto 16 days", "assay_type": "organism-based", "settings": "in vivo, 384 h, dose 0.15-1.5 mg/kg, time < 16 day"}, "[29]": {"assay": "Toxicity in BALB/c mouse assessed as effect on ALP level at 0.15 to 1.5 mg/kg measured upto 16 days", "assay_type": "organism-based", "settings": "in vivo, 384 h, dose 0.15-1.5 mg/kg, time < 16 day"}, "[30]": {"system": "COS-7", "assay": "Effect on PDHA1 expression in African monkey COS7 cells at 12 uM measured after 24 hrs", "assay_type": "functional, cell-based", "settings": "Chlorocebus aethiops"}, "[31]": {"system": "4T1", "assay": "Antitumor activity against mouse 4T1 cells xenografted in BALB/c mouse model assessed as reduction in hepatosplenomegaly by measuring organ coefficient at 0.15 to 1.5 mg/kg", "assay_type": "functional, organism-based", "settings": "dose 0.15-1.5 mg/kg"}, "[32]": {"system": "4T1", "assay": "Antitumor activity against mouse 4T1 cells xenografted in BALB/c mouse model assessed as reduction in inflammatory index in routine blood at 0.15 to 1.5 mg/kg", "assay_type": "functional, organism-based", "settings": "dose 0.15-1.5 mg/kg"}, "[33]": {"system": "4T1", "assay": "Induction of mitochondrial membrane potential depolarization in mouse 4T1 cells at high dose measured after 12 hrs by JC-1 staining based analysis", "assay_type": "functional, cell-based"}, "[34]": {"system": "COS-7", "assay": "Effect on phosphorylation of PDH expression at Serine 293 residues in African monkey COS7 cells at 12 uM measured after 24 hrs", "assay_type": "functional, cell-based", "settings": "Chlorocebus aethiops"}, "[35]": {"assay": "Toxicity in BALB/c mouse assessed as effect on heart at 0.15 to 1.5 mg/kg measured upto 16 days", "assay_type": "organism-based", "settings": "in vivo, 384 h, dose 0.15-1.5 mg/kg, time < 16 day"}, "[36]": {"system": "COS-7", "assay": "Effect on PHDC expression in African monkey COS7 cells at high concentration measured after 6 hrs", "assay_type": "functional, cell-based", "settings": "Chlorocebus aethiops"}, "[37]": {"system": "4T1", "assay": "Induction of mitochondrial membrane potential depolarization in mouse 4T1 cells at low dose measured after 12 hrs by JC-1 staining based analysis", "assay_type": "functional, cell-based"}, "[38]": {"system": "4T1", "assay": "Induction of mitochondrial respiration in mouse 4T1 cells assessed as increase in oxygen consumption rate at 2 to 6 uM incubated for 6 hrs by seahorse XF96 flux analyzer", "assay_type": "functional, cell-based", "settings": "dose 2-6 µM"}, "[39]": {"system": "4T1", "assay": "Induction of mitochondrial respiration in mouse 4T1 cells assessed as increase in basal respiration at 2 to 6 uM incubated for 6 hrs by seahorse XF96 flux analyzer", "assay_type": "functional, cell-based", "settings": "dose 2-6 µM"}, "[40]": {"assay": "Toxicity in BALB/c mouse assessed as effect on AST level at 0.15 to 1.5 mg/kg measured upto 16 days", "assay_type": "organism-based", "settings": "in vivo, 384 h, dose 0.15-1.5 mg/kg, time < 16 day"}, "[41]": {"system": "MCF7", "assay": "Antiproliferative activity against human MCF7 cells assessed as inhibition of cell growth incubated for 24 hrs by MTT assay", "assay_type": "functional, cell-based", "settings": "MCF7, 24 h"}},
  "note": "The source made the active and inactive calls. No cut-off for these calls is given here.",
  "data": [
    {"compound": "O=C(CCCCCNC(=O)C(Cl)Cl)Nc1ccc([As]2SCCCS2)cc1", "values": [
      {"measurement": "Activity", "setting": "[1]", "result": 16.1, "unit": "%"},
      {"measurement": "Activity", "setting": "[2]", "result": "Active"},
      {"measurement": "inhibition", "setting": "[3]", "result": "Active"},
      {"measurement": "Activity", "setting": "[4]", "result": "Non-Toxic"},
      {"measurement": "inhibition", "setting": "[5]", "result": "Active"},
      {"measurement": "Activity", "setting": "[6]", "result": "Active"},
      {"measurement": "Activity", "setting": "[7]", "result": "Dose-Dependent Effect"},
      {"measurement": "Activity", "setting": "[8]", "result": "Non-Toxic"},
      {"measurement": "Activity", "setting": "[9]", "result": "Non-Toxic"},
      {"measurement": "Activity", "setting": "[10]", "result": "Active"},
      {"measurement": "Activity", "setting": "[11]", "result": "Active"},
      {"measurement": "inhibition", "setting": "[12]", "result": "Active"},
      {"measurement": "IC50", "setting": "[13]", "result": 1920, "unit": "nM"},
      {"measurement": "Activity", "setting": "[14]", "result": "Active"},
      {"measurement": "Activity", "setting": "[15]", "result": "Active"},
      {"measurement": "inhibition", "setting": "[16]", "result": "Active"},
      {"measurement": "EC50", "setting": "[17]", "result": 68, "unit": "nM"},
      {"measurement": "inhibition", "setting": "[18]", "result": "Active"},
      {"measurement": "Activity", "setting": "[19]", "result": "Active"},
      {"measurement": "inhibition", "setting": "[20]", "result": "Active"},
      {"measurement": "Activity", "setting": "[21]", "result": "Non-Toxic"},
      {"measurement": "Activity", "setting": "[22]", "result": "Active"},
      {"measurement": "IC50 at 24 h", "setting": "[23]", "result": 11200, "unit": "nM"},
      {"measurement": "inhibition", "setting": "[24]", "result": "Active"},
      {"measurement": "Ratio IC50", "setting": "[25]", "result": 6},
      {"measurement": "Activity", "setting": "[26]", "result": "Active"},
      {"measurement": "Activity", "setting": "[27]", "result": "Active"},
      {"measurement": "Activity", "setting": "[28]", "result": "Non-Toxic"},
      {"measurement": "Activity", "setting": "[29]", "result": "Non-Toxic"},
      {"measurement": "Activity", "setting": "[30]", "result": "inactive"},
      {"measurement": "Activity", "setting": "[31]", "result": "Active"},
      {"measurement": "Activity", "setting": "[32]", "result": "Active"},
      {"measurement": "Activity", "setting": "[33]", "result": "Active"},
      {"measurement": "Activity", "setting": "[34]", "result": "inactive"},
      {"measurement": "Activity", "setting": "[35]", "result": "Non-Toxic"},
      {"measurement": "Activity", "setting": "[36]", "result": "inactive"},
      {"measurement": "Activity", "setting": "[37]", "result": "inactive"},
      {"measurement": "Activity", "setting": "[38]", "result": "Active"},
      {"measurement": "Activity", "setting": "[39]", "result": "Active"},
      {"measurement": "Activity", "setting": "[40]", "result": "Non-Toxic"},
      {"measurement": "IC50", "setting": "[41]", "result": 2500, "unit": "nM"}
    ]}
  ]
}
